Laboratory results reported in publication PMC7947795, “Rapamycin-Loaded Lipid Nanocapsules Induce Selective Inhibition of the mTORC1-Signaling Pathway in Glioblastoma Cells” (Frontiers in Bioengineering and Biotechnology, 2021).

Assays:
[1] = Rapamycin solubility assay in oils (RP-HPLC); assay type: physicochemical
Protocol: […] […] The mixture of 90% acetonitrile and 10% water (v/v) was used as a mobile phase, and delivered at a flow rate of 2.0 mL/min. The injection volume was 10 μL and the retention time was about 2.3 min.

[2] = no reference given; cited from earlier work
[3] = test system: HIF-1α protein expression; assay: Western blot HIF-1α; assay type: cell-based, Human; details: U87MG, 1 μM, 21 and 0.4% O2, 0Gy
Protocol: (§1) U87MG cells (2.4 × 10^5 cells/mL) harvested in the exponential growth phase were seeded in dishes in DMEM medium with 10% FBS, at 37°C in humidified atmosphere containing 5% CO2 and 21 or 0.4% O2. Once the cells incubated in the exponential growth phase, serum-contained medium was removed and replaced by serum-deprived DMEM supplemented with 1% N1 supplement. […] 8Gy radiation was performed 6 h after the treatment by Faxitron CP-160 (cf. section Irradiation Procedure).
(§2) Cells were scrapped and lysed by sonication for 10 s.
(§3) Equal amounts of protein from each sample, estimated by the Bio-Rad Protein Assay (Richmond, CA), were separated by electrophoresis through a 4–20% SDS-polyacrylamide gel (Mini-protean® TGX™ Ge, BioRad), transferred to PVDF membranes (AmershamHybond, GE Healthcare, Buckinghamshire, UK) and blocked with 4% non-fat dry milk in 1X TBS plus 0.1% Tween 20 at RT for 1 h. The membranes were washed and incubated with a primary antibody diluted in 2% BSA in 1X TBS plus 0.1% Tween 20 overnight at 4°C. The membranes were then washed and incubated again for 1 h at RT with peroxidase-conjugated anti-rabbit or anti-mouse secondary antibody. The bound antibody was detected using the enhanced chemiluminescence reagent kit SuperSignal West Femto (Thermo Scientific, Waltham, MA, USA) and read with a bioluminescence detector Image Quant Las 4000 (GE Healthcare, USA).

[4] = Spectral analysis of rapamycin stability in Labrafac; assay type: physicochemical; details: short cycles of heating and cooling at 70°C
Description: Spectral analysis was then made by use of the CLARIOstar microplate reader (BMG Labtech, Champigny-sur-Marne, France).

U87MG cells [5] = assay: Clonogenic assay by crystal violet coloration; assay type: cell-based, Human; details: 1 μM
Protocol: Irradiation was performed with the CP-160 cabinet x-ray system (Faxitron, Edimex, Le Plessis Grammoire, Angers, France) which delivers a dose of 1,5 grays by min. […] Irradiation was performed with cells covered.
Once the cells incubated in the exponential growth phase, serum-contained medium was removed and replaced by serum-deprived DMEM supplemented with 1 % N1 supplement. […] 8Gy radiation was performed 6 h after the treatment by Faxitron CP-160.

[6] = test system: phosphorylation of Akt on Ser473; assay: Western blot Akt-p; assay type: cell-based, Human; details: U87MG, 1 μM, 21 and 0.4% O2, 0Gy
Protocol: as §1, §2, §3

[7] = test system: 9L cells (rat glioma cells); set-up: method as in Tyler et al., 2011; details: in vitro, ref Tyler et al., 2011; cited from earlier work
[8] = test system: mTOR phosphorylation (Ser2448); assay: Western blot p-mTOR/HSC70; assay type: cell-based, Human; details: U87MG, 1 μM, serum-free medium, 21 and 0.4% O2, 16 h
U87MG cells [9] = assay: MTS cytotoxicity assay; assay type: cell-based; details: Homo sapiens, U-87 MG, serum-free medium, 4 h treatment, read at 48 h
Protocol: Two assays were performed to determine the cytotoxicity effect of LNC-rapa on the glioblastoma cell line U87MG:MTS (3-(4,5-dimethylthiazol-2-yl)-5-(3-carboxymethoxyphenyl)-2-(4-sulfophenyl)-2H-tetrazolium) (Promega, Charbonnières, France) and clonogenic assay by crystal violet coloration (Sigma-Aldrich).
For the MTS assay, U87MG cells (5 × 10^4 cells/mL) harvested in the exponential growth phase were seeded in a 24-well plate in DMEM medium with 10% FBS, in humidified atmosphere (5% CO2) at 37°C. Once the cells incubated in the exponential growth phase, serum-contained medium was removed and replaced by serum-deprived DMEM supplemented with 1% N1 supplement (Sigma-Aldrich). […] 8Gy radiation was performed 6 h after the onset of initial treatment by Faxitron CP-160 (Faxitron X-rays, Lincolnshire, UK). Medium was changed every day. Forty-eight hours following the treatment, MTS reagent was diluted (1:5) in U87MG cell medium and incubated for 2 h at 37°C. The absorbance was measured at 492 nm using Multiskan® microplate spectrophotometer (Thermo Scientific).
Depending on the condition considered, the cells were placed throughout the experiment in a conventional 21% O2 incubator at 37°C/5% CO2 (normoxia) or 0.4% O2 (hypoxia) at 37°C/5% CO2 in an InVivO2 400 SCI-tive hypoxia workstation (Ruskinn); they are only placed in isolated flasks for the duration of the irradiations.

## CO[C@H]1C[C@@H]2CC[C@@H](C)[C@@](O)(O2)C(=O)C(=O)N2CCCC[C@H]2C(=O)O[C@H]([C@H](C)C[C@@H]2CC[C@@H](O)[C@H](OC)C2)CC(=O)[C@H](C)/C=C(\C)[C@@H](O)[C@@H](OC)C(=O)[C@H](C)C[C@H](C)/C=C/C=C/C=C/1C [Rapamycin]
[1]; 90°C, 3 h, whatever the oil used
  Degradation at 90°C in oil: completely degraded
[1]; Captex 8000, 90°C
  Dissolution rate: 0%
[1]; Captex 8000, 90°C, initial 16.8 mg/mL
  Dissolved rapamycin: 0 mg/mL
[1]; Captex 8000, RT
  Dissolution rate: 9.5%
[1]; Captex 8000, RT, initial 19.0 mg/mL
  Dissolved rapamycin: 1.8 mg/mL
[1]; Labrafac, 90°C
  Dissolution rate: 0%
[1]; Labrafac, 90°C, initial 21.1 mg/mL
  Dissolved rapamycin: 0 mg/mL
[1]; Labrafac, RT
  Dissolution rate: 6.3%
[1]; Labrafac, RT, initial 24.0 mg/mL
  Dissolved rapamycin: 1.5 mg/mL
[1]; Miglyol 812, 90°C
  Dissolution rate: 0%
[1]; Miglyol 812, 90°C, initial 17.1 mg/mL
  Dissolved rapamycin: 0 mg/mL
[1]; Miglyol 812, RT
  Dissolution rate: 7.3%
[1]; Miglyol 812, RT, initial 19.2 mg/mL
  Dissolved rapamycin: 1.4 mg/mL
[2]
  logP: 4.3
[3]
  HIF-1α protein expression: reduced
[4]
  Stability of rapamycin in Labrafac: confirmed
U87MG cells [5]; 8Gy 6 h after treatment, 21 or 0.4% O2
  Synergistic effect with radiation treatment (clonogenic assay): do not exert any synergistic effect
U87MG cells [5]; 21 or 0.4% O2, 10 days, significant at 0.4% O2
  Effect on cell survival (clonogenic assay): only moderate effects
[6]
  Akt-p protein level (Ser473): enhance Akt-p protein level
[7]
  concentration causing growth inhibition: 0.01 µg/mL
[8]
  Inhibition of mTOR phosphorylation (Ser2448): strong inhibition of mTOR phosphorylation
U87MG cells [9]; 0.4% pO2 (hypoxia)
  IC50: 34.6 µM
U87MG cells [9]; 21% pO2 (normoxia)
  IC50: 20.5 µM
